Conditions in all cases: incubation time: 72 h
The test system of experiment [1] is CAL-85-1. The experiment is described as follows: normalised response (% of control), CellTiter-Glo; higher = more viable cells (100 = DMSO, 0 = benzethonium chloride kill control). An outline of the steps:
(§1)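 Compound was dispensed into 384-well plates at 5 concentrations in 10-fold steps spanning a 10,000-fold range specific to that compound. Breast cancer cell lines were added as 20 µl suspension and left for 72 h before CellTox Green fluorescence (485/520 nm) and then CellTiter-Glo luminescence, read after 10 min at room temperature. Each reported value is the normalised signal at one concentration, with 0.1 % DMSO set at 100 and a positive kill control at 0 on each plate.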

Experiment [2] relates to HCC1599. The experiment is described as above. In short, it runs like this:
as §1

The subject of experiment [3] is SK-BR-3. The description is as above. An outline of the steps:
as §1

Experiment [4] has as its system CAL-120. Described as above. In short, it runs like this:
as §1

The subject of experiment [5] is CAL-51. The experiment is described as above. In short, it runs like this:
as §1

The test system of the next experiment is BT-549. The description is as above. An outline of the steps: as §1
The subject of experiment [6] is MDA-MB-468. The description is as above. In short, it runs like this:
as §1

In experiment [7] the test system is MDA-MB-231. Described as above. In short, it runs like this:
as §1

In another experiment the test system is MDA-MB-436. Described as above. An outline of the steps:
as §1

Experiment [8] has as its system HCC1143. Described as above. An outline of the steps:
as §1

Experiment [9] relates to MDA-MB-453. The description is as above. In short, it runs like this: as §1
For experiment [10], the system named is CAL-148. The description is as above. In short, it runs like this:
as §1

Experiment [11] concerns HDQ-P1. Described as above. In short, it runs like this: as §1
Experiment [12] deals with HCC1937. Described as above. In short, it runs like this:
as §1

The subject of experiment [13] is DU-4475. The description is as above. An outline of the steps: as §1
For the next experiment, the system named is BT-474. The experiment is described as above. An outline of the steps: as §1
Experiment [14] has as its system MFM-223. The experiment is described as above. In short, it runs like this: as §1
Experiment [15] has as its system Hs578T. Described as above. An outline of the steps: as §1
A further experiment has as its system MCF-10A. The experiment is described as above. In short, it runs like this:
as §1

Experiment [16] has as its system CAL-85-1. Kind of experiment: normalised viability (% of control), CellTiter-Blue; higher = more viable cells (100 = DMSO, 0 = benzethonium chloride kill control). The procedure:
(§2)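 DSRT, CellTiter-Blue viability, 72 h incubation. Signal is normalised to DMSO and benzethonium chloride controls. Value is the normalised response at dose 1.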

Experiment [17] relates to HCC1599. The description is as above. The procedure:
as §2

The test system of experiment [18] is SK-BR-3. The description is as above. The procedure: as §2
Experiment [19] relates to CAL-120. The description is as above. The procedure: as §2
Experiment [20] has as its system CAL-51. The experiment is described as above. The procedure:
as §2

Experiment [21] has as its system MDA-MB-468. Described as above. The procedure: as §2
In experiment [22] the test system is MDA-MB-231. The experiment is described as above. The procedure: as §2
Experiment [23] has as its system HCC1143. The experiment is described as above. The procedure: as §2
Experiment [24] deals with MDA-MB-453. Described as above. The procedure:
as §2

Experiment [25] has as its system CAL-148. The experiment is described as above. The procedure: as §2
Experiment [26] deals with HDQ-P1. The description is as above. The procedure: as §2
Experiment [27] relates to HCC1937. Described as above. The procedure: as §2
Experiment [28] deals with DU-4475. The experiment is described as above. The procedure:
as §2

Experiment [29] deals with MFM-223. The experiment is described as above. The procedure:
as §2

Experiment [30] concerns Hs578T. The description is as above. The procedure:
as §2

Experiment [31] deals with CAL-85-1. The experiment is described as follows: normalised viability (% of control), CellTiter-Blue; higher = more viable cells (about 100 = DMSO control). The procedure:
(§3)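 DSRT, CellTiter-Blue viability, 72 h incubation. Signal is normalised to DMSO and benzethonium chloride controls. Value is the normalised response at dose 9.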

Experiment [32] concerns CAL-51. The description is as above. The procedure:
as §3

Experiment [33] has as its system MDA-MB-453. The description is as above. The procedure:
as §3

In experiment [34] the test system is CAL-148. The description is as above. The procedure:
as §3

Experiment [35] relates to HDQ-P1. Described as above. The procedure:
as §3

Experiment [36] relates to DU-4475. The experiment is described as above. The procedure:
as §3

Experiment [37] concerns CAL-85-1. Described as above. The procedure: (§4)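 DSRT, CellTiter-Blue viability, 72 h incubation. Signal is normalised to DMSO and benzethonium chloride controls. Value is the normalised response at dose 8.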
The source holds these as a separate data set.

Experiment [38] concerns CAL-51. The description is as above. The procedure:
as §4
This is another data set of the same source.

Experiment [39] relates to MDA-MB-453. The experiment is described as above. The procedure:
as §4
The source holds these as a separate data set.

Experiment [40] has as its system CAL-148. The description is as above. The procedure: as §4
This is another data set of the same source.

For experiment [41], the system named is HDQ-P1. Described as above. The procedure:
as §4
The source holds these as a separate data set.

For experiment [42], the system named is DU-4475. The experiment is described as above. The procedure:
as §4
This is another data set of the same source.

Values joined by “and” are separate entries in the source; they are usually repeats but may differ in a detail not shown here. Identical values can stand only once.

`CCCCCOC(=O)Nc1nc(=O)n([C@@H]2O[C@H](C)[C@@H](O)[C@H]2O)cc1F` [Capecitabine] (1 nM): the normalised response in the experiment on CAL-85-1 [1] was found to be 96.8%; in the experiment with HCC1599 [2] it was 95.5%; with SK-BR-3 [3], 110%; in the experiment on CAL-120 [4] it was 94.6%; in the experiment on CAL-51 [5], 67.8%; with BT-549, 107%. Moreover, the normalised response in the experiment with MDA-MB-468 [6] came to 103%; in the experiment with MDA-MB-231 [7], 102%; with MDA-MB-436, 88.7%; in the experiment with HCC1143 [8], 96.8%; with MDA-MB-453 [9], 113%; with CAL-148 [10] it was 106%. Moreover, the normalised response in the experiment with HDQ-P1 [11] amounted to 102%; in the experiment with HCC1937 [12] it was 98.2%; in the experiment with DU-4475 [13], 99.7%; in the experiment on BT-474, 95.2%; with MFM-223 [14], 98.2%; in the experiment on Hs578T [15], 102%. The compound further registered a normalised response with MCF-10A of 94.5%. The normalised viability was 86.7% and 109% in the experiment on CAL-85-1 [16]; 88.8% and 111% with HCC1599 [17]; 117% and 92.1% with SK-BR-3 [18]; 85.3% and 96.5% in the experiment with CAL-120 [19]; 106% and 99.2% in the experiment with CAL-51 [20]; 106% and 115% in the experiment on MDA-MB-468 [21]. Besides, the normalised viability in the experiment with MDA-MB-231 [22] was 94.7% and 83.7%; in the experiment on HCC1143 [23], 93.5% and 107%; in the experiment on MDA-MB-453 [24], 102% and 97.9%; in the experiment on CAL-148 [25] it was 106% and 102%; with HDQ-P1 [26] it was 85.1% and 91.7%; in the experiment with HCC1937 [27], 84.3% and 85%. Moreover, the normalised viability in the experiment with DU-4475 [28] was 108% and 102%; in the experiment with MFM-223 [29], 88.8% and 95.7%; in the experiment with Hs578T [30], 105% and 96.7%.
Regarding `C[C@@H](CN1CC(=O)NC(=O)C1)N1CC(=O)NC(=O)C1` [Dexrazoxane] (10000 nM), the normalised viability in the experiment with CAL-85-1 [31] amounted to 93.7%; in the experiment with CAL-51 [32] it was 92.9%; in the experiment on MDA-MB-453 [33], 100%; in the experiment on CAL-148 [34], 96.2%; with HDQ-P1 [35] it was 85.2%; with DU-4475 [36] it was 102%.
Consider `N[C@@H](Cc1ccc(N(CCCl)CCCl)cc1)C(=O)O` [Melphalan] (990 nM), for which the normalised viability was 72.1% in the experiment on CAL-85-1 [31]; 68.8% with CAL-51 [32]; 95.8% in the experiment on MDA-MB-453 [33]; 74.2% in the experiment on CAL-148 [34]; 94% in the experiment with HDQ-P1 [35]; 62.4% with DU-4475 [36].
For the compound `Cc1c(C(=O)Nc2ccc(N3C[C@@H](C)O[C@@H](C)C3)nc2)cccc1-c1ccc(OC(F)(F)F)cc1` [NVP-LDE225] (10000 nM), the normalised viability in the experiment with CAL-85-1 [31] was determined as 98.4%; in the experiment on CAL-51 [32] it was 92.5%; with MDA-MB-453 [33] it was 82.8%; with CAL-148 [34] it was 121%; in the experiment with HDQ-P1 [35] it was 127%; in the experiment with DU-4475 [36], 110%.
Consider `CO[C@H](C(=O)[C@@H](O)[C@@H](C)O)[C@@H]1Cc2cc3cc(O[C@H]4C[C@@H](O[C@@H]5C[C@@H](O)[C@H](O)[C@@H](C)O5)[C@H](O)[C@@H](C)O4)c(C)c(O)c3c(O)c2C(=O)[C@H]1O[C@H]1C[C@@H](O[C@@H]2C[C@@H](O)[C@@H](O[C@@H]3C[C@](C)(O)[C@H](O)[C@@H](C)O3)[C@@H](C)O2)[C@H](O)[C@@H](C)O1` [Plicamycin] (3000 nM), for which the normalised viability in the experiment with CAL-85-1 [37] is 5.82% and 5.38%; in the experiment on CAL-51 [38] it was 3.09% and 4.26%; in the experiment with MDA-MB-453 [39] it was 7% and 7.5%; in the experiment on CAL-148 [40], 5.24% and 3.76%; with HDQ-P1 [41], 23.8% and 15.9%; in the experiment on DU-4475 [42] it was 2.08% and 0.69%.
